Here are results for 1 compound from PMC5991599, “Anti‐tumor efficacy of a novel CLK inhibitor via targeting RNA splicing and MYC‐dependent vulnerability” (EMBO Molecular Medicine, 2018).

Structures are written as SMILES. A value given as a limit tells only on which side of the number the result lay.

The subject of series [1] is MDA-MB-468 xenograft. Description: Efficacy study in MDA-MB-468 xenograft model. In kind it is in vivo, Balb/c nude mice. As to conditions: 50 mg/kg oral, twice daily on 2 days per week. How it is done:
When xenografted tumors grew to a sufficient volume, the tumor diameter was measured and its volume was calculated as follows:
(§1) Tumor volume=long diameter×short diameter×short diameter×(1/2)
(§2) Mice having a tumor of size approximately 200 mm^3 were used in efficacy or in vivo pharmacodynamics studies. T‐025 was dissolved in 0.5% methylcellulose solution. For the efficacy study, after randomized grouping, mice were treated with T‐025 twice daily once or twice weekly for 2 or 3 weeks. The mouse tumor volume and body weight were measured every 2–3 days.

Series [2] relates to SUM-159 xenografts. Description: In vivo anti-tumor efficacy study in SUM-159 xenografts. The note with it: authors' response in review process file. The text has this:
EMBO Molecular Medicine - Peer Review Process File altering the spliciosome in non transformed cells (i.e. human mammary epithelial cells or MCF10A immortalized but not transform cells)
Although alternative splicing of BCLAF1 is reported to have an additional function in colorectal cancer (Zhou et al, 2014), the reported AS variant was different from the AS variant (lacking exon […]
AS in both cancer cell lines (HCT116) and untransformed cell lines (hTERT) (Funnell et al, 2017). […]
specific to transformed cells.
BJ) had relatively low expression of CLK2 and less growth-suppressive sensitivity to T-025 (Fig […]
rendered cancer cells more sensitive to T-025. […]
short-term treatment with T-025 causes apoptosis only in cancer cells with high expression of CLK2 or with activated MYC, but not in normal tissue. Therefore, in the mouse model, intermittent […]
- Figure 4 D, E, and F: it is not specified the name of all cancer dell lines used in the study. This is […]
relevant the work. If only SKBR3 and AU565 cell lines have a high MYC CVN, and consequently are more sensitive to T-025, why did the authors use MDA-MB 468 cell line to do the experiments of Figure 2 and 3? Please clarify. In addition, confirmation in an alternative breast cancer cell line is […]

Series [3] has as its target CLK3 (Homo sapiens, UniProt P49761). Description: Enzymatic assay. The note with it: read-out: IC50 (nmol/L) CLK3. In kind it is biochemical. The text has this:
(§3) Appendix Supplemental Methods

Series [4] addresses DYRK1B (Homo sapiens, UniProt Q9Y463). Description: Enzymatic assay. In kind it is biochemical. The note with it: read-out: IC50 (nmol/L) DYRK1B.
Excerpt: as §3

The target in series [5] is CLK2 (Homo sapiens, UniProt P49760). Briefly: Enzymatic assay. In kind it is biochemical. As to conditions: read-out: IC50 (nmol/L) CLK2.
Excerpt: as §3

Series [6] has as its target CLK1 (Homo sapiens, UniProt P49759). Description: Enzymatic assay. In kind it is biochemical. The note with it: read-out: IC50 (nmol/L) CLK1.
Excerpt: as §3

Series [7] relates to MYC-driven breast tumor allograft. Description: Efficacy study in MMTV-MYC allograft model. In kind it is in vivo, Balb/c nude mice. The note with it: 50 mg/kg, twice daily on 2 days per week. How it is done: The transgenic MMTV‐MYC model was generated using the MMTV promoter as previously described (Muller et al, 1988) and was obtained from the Mouse Models of Human Cancer Consortium. The MYC‐driven breast tumor allograft model was established from a primary tumor of this model (females). Tumor cells were isolated using a cell strainer in the presence of RPMI. Viable cell count was determined, and 0.1 × 10^6 cells per mouse were subcutaneously injected in Balb/c nude animals (12‐week‐old females, Taconic Biosciences, Hudson, NY, USA) for subsequent propagation in the presence of Matrigel (BD, Franklin Lakes, NJ, USA) After two rounds of in vivo propagation, the tumor material was cryopreserved in liquid nitrogen. A small piece of the tumor was subcutaneously inoculated into Balb/c nude mice (7‐ to 8‐week‐old females), and the tumors were used for efficacy assessment.
as §1, §2

Series [8] concerns xenografts derived from AML patient (PDX). Briefly: Efficacy study in patient-derived xenograft model of acute myeloid leukemia. In kind it is in vivo, NOG mice. The note with it: 25 and 50 mg/kg, twice daily at twice weekly.
Excerpt: To establish the patient‐derived xenograft model, a small piece of tumor purchased from Dr. Naoe at Nagoya University was subcutaneously inoculated into NOG mice (7‐ to 8‐week‐old females, CIEA Japan, Inc., Kanagawa, Japan). After three rounds of in vivo propagation, tumors were used for efficacy assessment.
as §1, §2
For orientation: A xenograft is tissue or cells of one species grown in another, often human tumour cells in immunodeficient mice.

A short description of series [9]: Pharmacokinetics evaluation, unbound plasma concentration after oral administration. In kind it is in vivo. As to conditions: nude mice, mean, calculated using protein binding. How it is done:
The black dotted line indicates the relative ATP value prior to treatment (Day 0). • C The number of AS events modulated by T‐025 treatment for 6 h in MDA‐MB‐468 cells. The numbers of AS events with a BF > 20 and |ΔPSI| > 0.1 were counted and categorized according to the AS type (SE, skipped exon; RI, retained intron; A5′SS, alternative 5′‐splice‐site; A3′SS, alternative 3′‐splice‐site; MEE, mutually exclusive exon; AFE, alternative first exon; ALE, alternative last exon). • D–F MDA‐MB‐468 xenograft tumors treated with 50 mg/kg of T‐025 were sampled and analyzed by immunohistochemistry […], immunoblotting (E), or RT–PCR (F). Representative images of pCLK2 stained tumors and scale bar (30 μm) are shown. Also shown: The mean unbound plasma T‐025 concentration was calculated using protein binding after oral administration. • G, H Anti‐tumor efficacy of T‐025 in MDA‐MB‐468 xenograft models. T‐025 was administered twice daily on 2 days per week (red arrows). Tumor volume (G) and body weight (H) during the efficacy study are shown as means ± s.e.m. (n = 5). Data information: In (B, D, and F), data are shown as the means ± s.d. of three independent experiments (n = 3). In (G and H), an unpaired Student's t‐test was performed.Source data are available online for this figure. TEXT PRINTED IN THE PICTURE: (D) T-025: Unbound plasma Conc. (nmol/L): 554 (50 mg/kg; 2 h); Unbound plasma Conc. (nmol/L): 97 (50 mg/kg; 4 h); Unbound plasma Conc. (nmol/L): 105 (50 mg/kg; 8 h); Unbound plasma Conc. (nmol/L): 0 (50 mg/kg; 24 h)
Then, we evaluated T‐025 in an animal model.

Chain of CLK1 (P49759 whole entry): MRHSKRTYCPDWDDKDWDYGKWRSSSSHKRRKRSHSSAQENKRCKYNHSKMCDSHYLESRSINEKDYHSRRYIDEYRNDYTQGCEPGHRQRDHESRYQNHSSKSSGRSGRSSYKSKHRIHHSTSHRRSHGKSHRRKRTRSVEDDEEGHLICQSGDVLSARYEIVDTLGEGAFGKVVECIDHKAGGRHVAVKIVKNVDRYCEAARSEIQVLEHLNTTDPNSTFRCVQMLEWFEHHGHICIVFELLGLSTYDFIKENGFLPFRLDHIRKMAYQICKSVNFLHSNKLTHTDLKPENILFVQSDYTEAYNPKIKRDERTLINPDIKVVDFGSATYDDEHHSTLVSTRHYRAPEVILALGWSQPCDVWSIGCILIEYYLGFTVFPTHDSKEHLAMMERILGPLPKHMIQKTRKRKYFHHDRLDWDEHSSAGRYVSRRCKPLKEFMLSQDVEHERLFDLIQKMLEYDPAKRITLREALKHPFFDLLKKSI
Chain of CLK2 (P49760 whole entry): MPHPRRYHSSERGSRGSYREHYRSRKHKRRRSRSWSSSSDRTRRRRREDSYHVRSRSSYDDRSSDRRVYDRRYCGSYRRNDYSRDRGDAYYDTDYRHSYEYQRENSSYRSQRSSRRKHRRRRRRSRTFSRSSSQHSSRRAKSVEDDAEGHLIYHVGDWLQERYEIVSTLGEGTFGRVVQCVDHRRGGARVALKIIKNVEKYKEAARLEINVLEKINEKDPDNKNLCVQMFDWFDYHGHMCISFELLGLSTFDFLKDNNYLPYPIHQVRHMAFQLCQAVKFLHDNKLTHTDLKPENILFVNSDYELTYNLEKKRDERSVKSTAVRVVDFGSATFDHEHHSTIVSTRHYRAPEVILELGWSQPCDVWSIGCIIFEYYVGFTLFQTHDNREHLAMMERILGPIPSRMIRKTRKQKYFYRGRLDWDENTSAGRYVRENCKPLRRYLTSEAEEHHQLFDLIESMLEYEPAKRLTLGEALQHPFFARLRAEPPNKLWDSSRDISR
Chain of CLK3 (P49761 whole entry): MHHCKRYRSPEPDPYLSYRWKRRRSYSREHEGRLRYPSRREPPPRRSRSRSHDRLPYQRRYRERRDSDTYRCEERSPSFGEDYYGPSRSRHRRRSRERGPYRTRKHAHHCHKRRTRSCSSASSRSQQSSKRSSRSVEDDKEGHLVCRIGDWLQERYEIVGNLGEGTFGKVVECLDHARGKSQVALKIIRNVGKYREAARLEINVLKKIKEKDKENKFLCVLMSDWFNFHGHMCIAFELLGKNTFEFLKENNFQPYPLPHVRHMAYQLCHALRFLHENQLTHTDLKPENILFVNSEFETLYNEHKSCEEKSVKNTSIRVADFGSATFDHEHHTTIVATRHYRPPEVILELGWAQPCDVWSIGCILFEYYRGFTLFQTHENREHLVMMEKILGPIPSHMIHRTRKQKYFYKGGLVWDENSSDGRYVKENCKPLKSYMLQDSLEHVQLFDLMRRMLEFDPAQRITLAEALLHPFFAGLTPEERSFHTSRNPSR
Chain of DYRK1B (Q9Y463 whole entry): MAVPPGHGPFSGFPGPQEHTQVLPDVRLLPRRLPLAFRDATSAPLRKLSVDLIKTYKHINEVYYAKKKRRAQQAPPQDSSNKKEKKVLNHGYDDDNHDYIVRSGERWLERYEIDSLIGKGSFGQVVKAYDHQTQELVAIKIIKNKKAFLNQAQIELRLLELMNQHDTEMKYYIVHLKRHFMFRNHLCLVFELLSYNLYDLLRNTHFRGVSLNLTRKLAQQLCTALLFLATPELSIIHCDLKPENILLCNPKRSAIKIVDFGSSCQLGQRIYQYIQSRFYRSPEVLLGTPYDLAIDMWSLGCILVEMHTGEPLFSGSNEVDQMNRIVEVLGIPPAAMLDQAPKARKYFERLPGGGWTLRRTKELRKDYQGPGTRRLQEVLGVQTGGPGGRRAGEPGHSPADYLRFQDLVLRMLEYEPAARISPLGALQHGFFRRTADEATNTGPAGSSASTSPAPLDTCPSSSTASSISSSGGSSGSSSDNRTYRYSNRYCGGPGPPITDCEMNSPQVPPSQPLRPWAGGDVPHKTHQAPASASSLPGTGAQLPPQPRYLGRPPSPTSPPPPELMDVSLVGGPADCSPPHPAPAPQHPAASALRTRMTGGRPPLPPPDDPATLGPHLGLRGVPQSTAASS

Take `CNc1nc(NCc2ncccn2)c2c(-c3ccc4ncccc4c3)c[nH]c2n1` [T-025, N ^2‐methyl‐N ^4‐[pyrimidin‐2‐ylmethyl]‐5‐[quinolin‐6‐yl]‐7H‐pyrrolo[2,3‐d]pyrimidine‐2,4‐diamine]: the “nadir body weight loss” value in series [1] (3 weeks, near the maximum tolerated dose) is on record as below 10%. Further, the “anti-tumor effect, tumor volume” value in [1] (end of 3-week treatment cycle) is reported as “tumor volumes had shrunk relative to the initial volumes”. Besides, the anti-tumor efficacy entry in series [2] is listed as “showed significant anti-tumor properties”. Further, the IC50 was 14 nmol/L in series [3], 1.5 nmol/L in series [4], 1 nmol/L in series [5] and 0.93 nmol/L in series [6]. In series [7], the “anti-tumor efficacy, tumor growth” value is recorded as “strongly suppressed growth of the allograft tumors”. The body weight loss entry in series [7] was “without inducing body weight losses”. In addition, in series [8], the “anti-tumor efficacy, tumor volume” value is listed as “profound anti‐tumor efficacies”. Besides, the “Unbound plasma Conc.” value in series [9] (oral 50 mg/kg, 8 h) was 104 nM. Further, in [9] (nude, mouse, plasma, po, 50 mg/kg, 2 h, read-out: Unbound plasma Conc.), the concentration at 2 h was 554 nM. The concentration at 4 h in [9] (nude, mouse, plasma, po, 50 mg/kg, 4 h, read-out: Unbound plasma Conc.) was 97 nM. For the same compound, in [9] (nude, mouse, plasma, po, 50 mg/kg, 8 h, read-out: Unbound plasma Conc.), the concentration at 8 h was 105 nM. For the same compound, the concentration at 24 h in series [9] (nude, mouse, plasma, po, 50 mg/kg, 24 h, read-out: Unbound plasma Conc.) is 0 nM.
